From patent US20070239107A1, “Device and Method for Administering Therapeutic Agents” (priority 2003, published 2007)

Columns and labels:
[1] = Kinetics of NO release from the retention balloon (headspace chemiluminescence); format: physicochemical; conditions: balloon filled with ascorbic acid/nitrite solution; NO-free air flush 4.5 L/min
Source text: The kinetics of NO release from the retention balloon was monitored in separate experiments. The catheter was placed in the flask and after filling the retention balloon with the ascorbic acid/nitrite solution the flask was closed. Synthetic NO-free air was flushed via an inlet at a rate of 4.5 L/min and headspace NO was continuously measured from an outlet by a rapid-response chemiluminescence system (Aerocrine AB, Stockholm, Sweden).

[2] = system: E. coli isolated from a patient with urinary tract infection and E. coli ATCC 25992; assay: Viable counts of E. coli in urine surrounding the filled retention balloon; format: cell-based; conditions: solution in retention balloon, start 10^5 cfu/ml, 37° C.
E. coli = assay: Comparative experiment with traditional antibiotic in retention balloon or directly in urine
Experimental: An overnight culture was added to 25 ml of urine to a final density of 10^5 CFU/ml. The urine was placed in long-necked 50 ml flasks with a shape resembling the urinary bladder and the urethra. An all-silicone catheter (Argyle, Sherwood Medical, Tullamore, Ireland) was placed in the flask and the retention balloon was filled with 10 ml of saline containing ascorbic acid (10 mM) and sodium nitrite (5 mM). The pH of the solution was adjusted to 2.5 using hydrochloric acid (3 M). Ascorbic acid and nitrite were prepared and mixed immediately before administration. Ascorbic acid solution alone (pH 2.5) was used as control. After filling the retention balloons the catheter was gently pulled outwards and fixed at the neck whereby the flask opening was sealed off. Then the flasks were turned up side down and incubated at 37° C. for 24 h. At the end of the experiment the urine was serially diluted and further cultured on blood agar plates for determination of viable counts (cfu/ml). All experiments were made in quadruplicate.
In a separate flask ciprofloxacin was added directly to the urine.

## [N]=O [NO, nitric oxide]
[1]
  half-time of decrease of NO release rate from the balloons: about 30 min

## O=C1O[C@H]([C@@H](O)CO)C(O)=C1O [ascorbic acid alone, ascorbic acid]
[2]
  bacterial counts after 24 h: 10^8 cfu/ml

## O=C(O)c1cn(C2CC2)c2cc(N3CCNCC3)c(F)cc2c1=O [ciprofloxacin]
E. coli; antibiotic added directly to the urine
  antibacterial effect in urine: effectively killed the bacteria
E. coli; antibiotic placed in the retention balloon
  antibacterial effect in the urine surrounding the balloon: no antibacterial effect
